Experimental findings from patent publication US20220401414A1, “TREATMENT AND PREVENTION OF A NEURODEGENERATIVE DISORDER” (Inflazome Limited, priority 2019, published 2022) are described below.

This data set is described as follows: Study A: blood-brain barrier penetration, striatal MetaQuant microdialysis in healthy mice after oral dosing. It counts as in vivo, C57B1/6 mice. The following applies: for average peak levels in left and right striatal dialysate: MetaQuant dialysate, not corrected for recovery; for time of average peak levels after compound administration: striatal dialysate. As for the experimental part:
The present study was designed to determine the free concentration of the compound of formula (I) in the left and right striatum of freely-moving adult male mice after oral administration.
Adult male C57B1/6 mice (22-28 g; Envigo, the Netherlands) were used for the experiments. Following arrival, animals were housed in groups of 5 in polypropylene cages (40×50×20 cm) with wire mesh top in a temperature (22±2° C.) and humidity (55±15%) controlled environment on a 12 hour light cycle (07.00-19.00). Following surgery, animals were housed individually (cages 30×30×40 cm). Standard diet (SDS Diets, RM1 PL) and domestic quality mains water were available ad libitum.
Mice were anesthetized using isoflurane (2% and 500 mL/min O2). Before surgery, Finadyne (1 mg/kg, s.c.) was administered for analgesia during surgery and the post-surgical recovery period. A mixture of bupivacaine and epinephrine was used for local analgesia of the incision site.
The animals were placed in a stereotaxic frame (Kopf instruments, USA). MetaQuant microdialysis probes with a 3 mm exposed polyacrylonitrile membrane (MQ-PAN 33) were implanted bilaterally into the left and right striatum (coordinates for the tip of the probe: AP=+0.8 mm (to bregma), ML=+/−1.7 mm (to midline), DV=−4.0 mm (to dura) with an angle of 0° and the incisor bar set at 0.0 mm. All coordinates were based on “The mouse brain in stereotaxic coordinates” by Paxinos and Franklin (2008). The probes were attached to the skull with a stainless-steel screw and dental cement.
The monosodium salt of the compound of formula (I) was formulated in sterilized tap water at concentrations (with respect to the non-salt form) of 0.2 and 4 mg/mL for oral dosing at 5 mL/kg; 1 mg/kg and 20 mg/kg, respectively.
The MetaQuant microdialysis probes were connected with flexible PEEK tubing (Western Analytical Products Inc. USA; PK005-020) to a microperfusion pump (Harvard) and perfused with a slow flow of artificial CSF (perfusate), containing 147 mM NaCl, 3.0 mM KCl, 1.2 mM CaCl2, and 1.2 mM MgCl2, at a flow rate of 0.12 μL/min and a carrier flow of UP+0.02 M FA+0.04% ascorbic acid at o.8 μL/min. After a minimum of two hours of prestabilisation, microdialysis samples were collected in 60 minute intervals. Following collection of two baseline samples, the compound of formula (I) (1 or 20 mg/kg in sterilised tap water) was administered orally at t=0 minutes. Samples were collected into mini-vials (Microbiotech/se AB, Sweden; 4001029) using an automated fraction collector (UV 8301501, TSE, Univentor, Malta). At the end of the experiment, the animals were sacrificed.
Microdialysate samples from MetaQuant probes contained a nominal volume of 55.2 μL dialysate. Levels of the compound of formula (I) in MetaQuant microdialysate samples were quantified by LC-MS/MS.
The dialysate samples were mixed with acetonitrile and an aliquot of this mixture was injected into the LC system by an automated sample injector (SIL-20AD, Shimadzu, Japan). Calibrators and in-run QC samples were prepared in analytical dialysate of the same composition as the microdialysate samples. […]
Suitable in-run calibration curves were fitted using weighted (1/x) regression and the sample concentrations were determined using these calibration curves. […]

Molecules are shown by their SMILES.

Take `CC(C)n1ccc(S(=O)(=O)NC(=O)Nc2c3c(cc4c2CCC4)CCC3)n1` [compound of formula (I)]: the “average peak levels in left and right striatal dialysate” value (1 mg/kg oral (monosodium salt in sterilised tap water)) fell in the range of 12 to 13 nM; the “average peak levels in left and right striatal dialysate” value (20 mg/kg oral (monosodium salt in sterilised tap water)) is 201 to 243 nM. Moreover, the “time of average peak levels after compound administration” value came to 5 h (1 mg/kg oral) and 6 h (20 mg/kg oral). For the same compound, the blood-brain barrier penetration result (oral administration) is on record as “cross the blood-brain barrier following oral administration”.
